Measured values as given in ChEMBL document CHEMBL1817576, “Specific inhibitions of annonaceous acetogenins on class II 3-hydroxy-3-methylglutaryl coenzyme A reductase from Streptococcus pneumoniae” (Bioorg Med Chem, 2011).
Values belong to the compound of their own block, whether it stands above or below them.

Legend:
[1] = test system: Listeria monocytogenes; assay: Activity of Listeria monocytogenes HMGR class II expressed in Escherichia coli BL21(DE3) using NADPH as substrate after 5 min by microplate reader
[2] = test system: Staphylococcus aureus; assay: Activity of Staphylococcus aureus HMGR class II expressed in Escherichia coli BL21(DE3) using NADPH as substrate after 5 min by microplate reader
[3] = test system: Streptococcus pneumoniae; assay: Activity of Streptococcus pneumoniae recombinant HMGR class II expressed in Escherichia coli BL21(DE3) using NADPH as substrate after 5 min by microplate reader
[4] = test system: Haloferax volcanii; assay: Activity of Haloferax volcanii HMGR class I expressed in Escherichia coli BL21(DE3) using NADPH as substrate after 5 min by microplate reader
[5] = species: Mesocricetus auratus; assay: Activity of syrian hamsters HMGR class I expressed in Escherichia coli BL21(DE3) using NADPH as substrate after 5 min by microplate reader
[6] = test system: Listeria monocytogenes; assay: Ratio of Kcat to Km for Listeria monocytogenes HMGR class II using NADPH substrate
[7] = test system: Streptococcus pneumoniae; assay: Ratio of Kcat to Km for Streptococcus pneumoniae HMGR class II using NADPH substrate
[8] = Inhibition of Streptococcus pneumoniae recombinant HMGR class II expressed in Escherichia coli using HMG-CoA as substrate
[9] = test system: Staphylococcus aureus; assay: Activity of Staphylococcus aureus HMGR class II expressed in Escherichia coli BL21(DE3) using HMG-CoA substrate after 1 min by microplate reader
[10] = test system: Haloferax volcanii; assay: Activity of Haloferax volcanii HMGR class I expressed in Escherichia coli BL21(DE3) using HMG-CoA substrate after 1 min by microplate reader
[11] = test system: Listeria monocytogenes; assay: Activity of Listeria monocytogenes HMGR class II expressed in Escherichia coli BL21(DE3) using HMG-CoA substrate after 1 min by microplate reader
[12] = test system: Streptococcus pneumoniae; assay: Activity of Streptococcus pneumoniae recombinant HMGR class II expressed in Escherichia coli BL21(DE3) using HMG-CoA substrate after 1 min by microplate reader
[13] = species: Mesocricetus auratus; assay: Activity of syrian hamsters HMGR class I expressed in Escherichia coli BL21(DE3) using HMG-CoA substrate after 1 min by microplate reader
[14] = Inhibition of Archaeoglobus fulgidus HMGCR 1 recombinant HMGR class II expressed in Escherichia coli using HMG-CoA as substrate
[15] = Inhibition of Pseudomonas mevalonii recombinant HMGR class II expressed in Escherichia coli using HMG-CoA as substrate; set-up: species or system Pseudomonas sp. 'mevalonii'
[16] = Inhibition of Listeria monocytogenes recombinant HMGR class II expressed in Escherichia coli using HMG-CoA as substrate
[17] = test system: Streptococcus pneumoniae; assay: Ratio Ki for lovastatin to compound for recombinant Streptococcus pneumoniae HMGR class II
[18] = Inhibition of Staphylococcus aureus recombinant HMGR class II expressed in Escherichia coli using HMG-CoA as substrate

- Km [1]: 12.9 µM
- kcat [1]: 22.6 s⁻¹
- Km [2]: 70 µM
- Km [3]: 38.9 µM
- kcat [3]: 11.9 s⁻¹
- Km [4]: 66 µM
- Km [5]: 80 µM
- kcat/Km [6]: 186000 M⁻¹ s⁻¹
- kcat/Km [7]: 322000 M⁻¹ s⁻¹
Compound: NC(=O)c1ccc[n+]([C@@H]2O[C@H](COP(=O)([O-])OP(=O)(O)OC[C@H]3O[C@@H](n4cnc5c(N)ncnc54)[C@H](OP(=O)(O)O)[C@@H]3O)[C@@H](O)[C@H]2O)c1

Compound: CCCCCCCCCC[C@H](O)[C@H]1CC[C@H]([C@H](O)CC[C@H](O)[C@@H]2CC[C@@H](CCCCCCC[C@@H](O)CC3=C[C@H](C)OC3=O)O2)O1 [BULLATALICIN]
- Ki [8]: 17.7 µM

Compound: CCCCCC[C@H](O)CCC[C@H](O)[C@H]1CC[C@H]([C@H](O)CC[C@H](O)[C@@H]2CC[C@@H](CCCCCCCCCC3=C[C@H](C)OC3=O)O2)O1 [SQUAMOSTATIN A]
- Ki [8]: 6.45 µM

- Km [9]: 40 µM
- Km [10]: 60 µM
- Km [11]: 19.8 µM
- Km [12]: 75.9 µM
- Km [13]: 20 µM
Compound: CC(C)(CO[P@@](=O)(O)O[P@@](=O)(O)OC[C@H]1O[C@@H](n2cnc3c(N)ncnc32)[C@H](O)[C@@H]1OP(=O)(O)O)[C@@H](O)C(=O)NCCC(=O)NCCSC(=O)C[C@@](C)(O)CC(=O)O

Compound: CCCCC[C@H](O)CCCC[C@H](O)[C@H]1CC[C@H]([C@H]2CC[C@H]([C@H](O)CCCCCCCCCCCCC3=C[C@H](C)OC3=O)O2)O1 [MOTRILIN]
- Ki [8]: 20.5 µM

- Ratio Ki [17]: 20
Compound: CC[C@H](C)C(=O)O[C@H]1C[C@@H](C)C=C2C=C[C@H](C)[C@H](CC[C@@H]3C[C@@H](O)CC(=O)O3)[C@H]21 [LOVASTATIN]
- Ki [14]: 530 µM
- Ki [15]: 180 µM
- Ki [16]: 130 µM
- Ki [8]: 116 µM
- Ki [18]: 320 µM

Compound: CCCCCCCCCCC(O)C1CCC(C2CCC(C(O)CCCCCCCC[C@H](O)CC3=C[C@@H](C)OC3=O)O2)O1 (some centres undefined) [ASIMICIN]
- Ki [8]: 12.2 µM
